Measurements from patent US5137811A, “Method for diagnosing periodontal diseases with a substrate specific for aminopeptidase activity of periodontopathic bacteria” (Sunstar Kabushiki Kaisha, priority 1986, dated 1992).
*1 amine or outer side, *2 acyl side, *3 side chain or, on linkers, in order; H or OH if unused. Where a SMILES comes first, the peptide text is derived from it. The star is where a group is joined. Suc = O=C(CCC(=O)[*:2])[*:1]; βNA = c1ccc2cc(N*)ccc2c1; Cbz = O=C(OCc1ccccc1)*; Bz = O=C(c1ccccc1)*

Assays:
Test in all cases: Hydrolytic activity of cell suspension on aminopeptidase substrates (Experiment 2)
Type in all cases: cell-based
B. intermedius = conditions: three strains, Table 2
Protocol: (§1) The strains of Treponema were anaerobically cultivated using TYGVS media at 37° C. for 7 days, while other bacterial strains were cultivated using brain heart infusion broth at 37° C. for 48 to 72 hours. Each culture was diluted to obtain a bacterial cell suspension, the absorption at 660 nm of which was 1.0.
(§2) Substrate compounds for aminopeptidase enzyme having various color developing groups derived from β-naphthylamine were dissolved in 0.1M Tris-HCl buffer (pH 7.0) at the concentration of 0.2 mM to obtain substrate solutions.
(§3) To the substrate solution (1.5 ml) was added the above cell suspension (0.3 ml) and reacted at 37° C. for 60 minutes. After completion of the reaction, a coloring reagent [prepared by dissolving diazonium salt of Garnet GBC in 1M acetate buffer (containing 10% Tween 20, pH: 4.2) at the concentration of 0.5 mg/ml] was added and, after 15 minutes, the absorption at 525 nm was determined with a spectrophotometer.
(§4) On the basis of the average amount of released β-naphthylamine in each strain, the hydrolytic activity was expressed as follows: […]
(§5) According to the same manner as described in Experiment 1, periodontopathic bacteria specific aminopeptidase activity was tested by using four strains of Treponema denticola, five strains of B. gingivalis, three strains of B. intermedius, two strains of B. melaninogenicus, two strains of Actinomyces israelli, four strains of Actinobacillus actinomycetemcomitans and three strains of Fusobacterium nucleatum. Abbreviations used in Table 2 mean the following substrate compounds.

B. melaninogenicus = conditions: two strains, Table 2
Protocol: as §1, §2, §3, §4, §5

Treponema denticola = conditions: four strains, Table 2
Protocol: as §1, §2, §3, §4, §5

B. gingivalis = conditions: five strains, Table 2
Protocol: as §1, §2, §3, §4, §5

[1] = test system: Actinobacillus actinomycetemcomitans; conditions: four strains, Table 2
Protocol: as §1, §2, §3, §4, §5

B. denticola = conditions: Table 2
Protocol: as §1, §2, §3, §4, §5

Actinomyces israelli = conditions: two strains, Table 2
Protocol: as §1, §2, §3, §4, §5

B. corporis = conditions: Table 2
Protocol: as §1, §2, §3, §4, §5

Fusobacterium nucleatum = conditions: three strains, Table 2
Protocol: as §1, §2, §3, §4, §5

Row | SMILES | hydrolytic activity (average amount of released β-naphthylamine) (B. intermedius) | hydrolytic activity (average amount of released β-naphthylamine) (B. melaninogenicus) | hydrolytic activity (average amount of released β-naphthylamine) (Treponema denticola) | hydrolytic activity (average amount of released β-naphthylamine) (B. gingivalis) | hydrolytic activity (average amount of released β-naphthylamine) [1] | hydrolytic activity (average amount of released β-naphthylamine) (B. denticola) | hydrolytic activity (average amount of released β-naphthylamine) (Actinomyces israelli) | hydrolytic activity (average amount of released β-naphthylamine) (B. corporis) | hydrolytic activity (average amount of released β-naphthylamine) (Fusobacterium nucleatum)
1 | CC(C)C[C@H](NC(=O)[C@@H]1CCCN1C(=O)CNC(=O)CCC(=O)O)C(=O)NCC(=O)N1CCC[C@H]1C(=O)Nc1ccc2ccccc2c1 [ScGPLGP, N-succinyl-glycyl-prolyl-leucyl-glycyl-proline-β-naphthylamide] (Suc-GPLGP-βNA) | + (10 ≤release amount<20 nmol/ml) | ± (5 ≤release amount<10 nmol/ml) | + (10 ≤release amount<20 nmol/ml) | ± (5 ≤release amount<10 nmol/ml) | - (release amount<5 nmol/ml) | ± (5 ≤release amount<10 nmol/ml) | - (release amount<5 nmol/ml) | ± (5 ≤release amount<10 nmol/ml) | - (release amount<5 nmol/ml)
2 | CC(C)C[C@H](N)C(=O)NCC(=O)Nc1ccc2ccccc2c1 [LG, leucyl-glycine-β-naphthylamide, reference compound] (H-Leu-Gly-βNA) | - (release amount<5 nmol/ml) | +++ (release amount≥40 nmol/ml) | - (release amount<5 nmol/ml) | + (10 ≤release amount<20 nmol/ml) | - (release amount<5 nmol/ml) | ++ (20 ≤release amount<40 nmol/ml) | - (release amount<5 nmol/ml) | ++ (20 ≤release amount<40 nmol/ml) | - (release amount<5 nmol/ml)
3 | O=C(Nc1ccc2ccccc2c1)[C@@H]1CCCN1 [P, proline-β-naphthylamide, reference compound] | - (release amount<5 nmol/ml) | - (release amount<5 nmol/ml) | + (10 ≤release amount<20 nmol/ml) | - (release amount<5 nmol/ml) | - (release amount<5 nmol/ml) | - (release amount<5 nmol/ml) | - (release amount<5 nmol/ml) | - (release amount<5 nmol/ml) | - (release amount<5 nmol/ml)
4 | N[C@@H](CO)C(=O)N[C@@H](Cc1ccc(O)cc1)C(=O)Nc1ccc2ccccc2c1 [SY, seryl-tyrosine-β-naphthylamide, reference compound] (H-Ser-Tyr-βNA) | - (release amount<5 nmol/ml) | ± (5 ≤release amount<10 nmol/ml) | - (release amount<5 nmol/ml) | ++ (20 ≤release amount<40 nmol/ml) | - (release amount<5 nmol/ml) | ± (5 ≤release amount<10 nmol/ml) | - (release amount<5 nmol/ml) | ± (5 ≤release amount<10 nmol/ml) | - (release amount<5 nmol/ml)
5 | N[C@@H](Cc1ccccc1)C(=O)N1CCC[C@H]1C(=O)Nc1ccc2ccccc2c1 [FP, phenylalanyl-proline-β-naphthylamide] (H-Phe-Pro-βNA) | + (10 ≤release amount<20 nmol/ml) | + (10 ≤release amount<20 nmol/ml) | ++ (20 ≤release amount<40 nmol/ml) | ++ (20 ≤release amount<40 nmol/ml) | - (release amount<5 nmol/ml) | + (10 ≤release amount<20 nmol/ml) | - (release amount<5 nmol/ml) | + (10 ≤release amount<20 nmol/ml) | - (release amount<5 nmol/ml)
6 | O=C(CNC(=O)c1ccccc1)N[C@@H](Cc1ccccc1)C(=O)N1CCC[C@H]1C(=O)Nc1ccc2ccccc2c1 [BzGFP, N-benzoyl-glycyl-phenylalanyl-proline-β-naphthylamide] (Bz-Gly-Phe-Pro-βNA) | +++ (release amount≥40 nmol/ml) | ++ (20 ≤release amount<40 nmol/ml) | +++ (release amount≥40 nmol/ml) | ++ (20 ≤release amount<40 nmol/ml) | - (release amount<5 nmol/ml) | ++ (20 ≤release amount<40 nmol/ml) | - (release amount<5 nmol/ml) | ++ (20 ≤release amount<40 nmol/ml) | - (release amount<5 nmol/ml)
7 | O=C(NCC(=O)N1CCC[C@H]1C(=O)Nc1ccc2ccccc2c1)c1ccccc1 [BzGP, N-benzoyl-glycyl-proline-β-naphthylamide] (Bz-Gly-Pro-βNA) | +++ (release amount≥40 nmol/ml) | ++ (20 ≤release amount<40 nmol/ml) | ++ (20 ≤release amount<40 nmol/ml) | ++ (20 ≤release amount<40 nmol/ml) | - (release amount<5 nmol/ml) | ++ (20 ≤release amount<40 nmol/ml) | - (release amount<5 nmol/ml) | ++ (20 ≤release amount<40 nmol/ml) | - (release amount<5 nmol/ml)
8 | CC(C)[C@H](NC(=O)OCc1ccccc1)C(=O)N[C@@H](CCCCN)C(=O)N1CCC[C@H]1C(=O)Nc1ccc2ccccc2c1 [CxVKP, N-carbobenzoxy-valyl-lysyl-proline-β-naphthylamide] (Cbz-Val-Lys-Pro-βNA) | ++ (20 ≤release amount<40 nmol/ml) | ++ (20 ≤release amount<40 nmol/ml) | ++ (20 ≤release amount<40 nmol/ml) | ++ (20 ≤release amount<40 nmol/ml) | - (release amount<5 nmol/ml) | ++ (20 ≤release amount<40 nmol/ml) | - (release amount<5 nmol/ml) | ++ (20 ≤release amount<40 nmol/ml) | - (release amount<5 nmol/ml)
9 | CC(C)[C@H](N)C(=O)N[C@@H](C)C(=O)Nc1ccc2ccccc2c1 [VA, valyl-alanine-β-naphthylamide, reference compound] (H-Val-Ala-βNA) | - (release amount<5 nmol/ml) | ± (5 ≤release amount<10 nmol/ml) | - (release amount<5 nmol/ml) | ++ (20 ≤release amount<40 nmol/ml) | - (release amount<5 nmol/ml) | ± (5 ≤release amount<10 nmol/ml) | - (release amount<5 nmol/ml) | ± (5 ≤release amount<10 nmol/ml) | - (release amount<5 nmol/ml)
